Reference: patent US20210172961A1, “METHODS FOR IDENTIFYING RNA EDITING-DERIVED EPITOPES THAT ELICIT IMMUNE RESPONSES IN CANCER” (Board of Regents, The University of Texas System, priority 2018, published 2021)

What was measured:
Format in all cases: cell-based, human
melanoma TILs = assay: IFNγ ELISPOT of melanoma TILs incubated with synthetic peptide; details: for IFNγ production by TILs (ELISPOT response to peptide): 15 HLA-A*02:01-expressing melanoma TILs, peptide 10 μM
From the text: To examine whether the detected HLA ligands are recognized by tumor-infiltrating lymphocytes (TILs) and if these TILs can kill cells presenting ED. For this analysis, matched autologous pairs of melanoma TILs and tumor cell lines were used. CCNI-ED peptide and its WT counterpart were synthesized and evaluated for their ability to activate TILs generated from human melanoma tumours.
Melanoma TILs were generated as described before. Briefly, melanoma tumor samples were either cut into 1-3 mm^2 fragments and put in culture in a tissue-treated 24-well plate, in complete TIL media (TIL-CM) consisting of RPMI 1640 (Gibco, 61871), 10% of human AB serum (GEMINI, 100-512), 0.1% of 2-mercaptoethanol (Gibco, 21985023), 1% of HEPES (Corning, 25-060), 1% sodium pyruvate (Invitrogen/Life Technologies, 11360-070), 1% of Glutomax (Gibco, 35050061), 1% PenStrep (ThermoFisher, 15070063) plus 6000 U/mL of human IL-2 or put in culture after the tumor samples were enzymatically digested by collagenase for 1 h at 37° C. followed by centrifugation using a multi-layer Ficoll gradient (100% and 75%, Ficoll-Paque PLUS, GE, 17-1440-02) where the 100% layer was collected for TILs. Every 3 days, half of the medium was replaced with fresh medium and the TIL culture was split to keep the cells at a density of 1×10^6/mL. TILs were expanded between 2 to 5 weeks, depending on the TIL lines. To increase the number of TILs available for experiments, the lines were further expanded using the rapid expansion protocol (REP). In brief, 1.5×10^5 primary TILs generated above were cultured with 27×10^6 feeder cells together with 0.6 mg soluble anti-CD3 monoclonal antibody (OKT3 clone, Muronomab—Abbott Labs). The feeder cells are peripheral blood mononuclear (PBMC) cells mixed from at least 5 healthy donors and irradiated at 5,000 cGy for 20 minutes prior to culture in order to prevent their proliferation during the REP. 6,000 U/mL IL-2 was added at the second day and half of the medium was recovered and replaced with fresh medium containing 50% of TIL-CM and 50% of AIM-V medium (Invitrogen, 12055-083) every 3 days to keep TIL density between 0.5-2×10^6/mL. The cultured TILs were harvested at day 14 for functional analysis or frozen in human serum with 10% DMSO (Thermo Fisher, 67-68-5). Autologous tumor cell lines were also established from the enzymatically digested tumours followed by the multi-layer Ficoll gradient where the 75% layer was collected and put in culture in complete tumor media (RPMI 1640, Gibco, 61871) containing 10% FBS, 1% HEPES (Corning, 25-060), 1% sodium pyruvate (Invitrogen/Life Technologies, 11360-070), 1% insulin/selenium/transferrin (Gibco, 51300), 0.2% MycoZap-PR (Lonza, VZA-2011). All tumor samples were HLA typed at the HLA-A locus in the MD Anderson HLA Typing Laboratory. […]

T2 cells = assay: Caspase3 based CTL killing assay, TIL2661 against peptide-pulsed T2 cells; details: T2 pulsed with 10 μM peptide, anti-caspase3 staining, flow cytometry
From the text: T cells play a primary role in adaptive immunity against infections and tumorigenesis, and therapies based on manipulating T-cell activation have shown promise in cancer treatment. To determine the function of CCNI-ED specific T cells in mediating tumor cell killing, the HLA-A*02:01 expressing lymphoblast cell line T2, which is lacking expression of the transporter associated with antigen processing (TAP) and thus incapable of presenting endogenous peptides, were employed. The CCNI-WT or CCNI-ED peptide were pulsed onto T2 cells, co-cultured with TIL2661 in different ratios, and then measured T-cell mediated target cell death based on anti-caspase3 staining and subsequent flow cytometric quantification. […]
T cell-mediated cell killing was analyzed using a flow cytometry-based method by detecting T cell-induced caspase-3 cleavage in target cells. […] T cell-mediated caspase-3 cleavage was measured by intracellular staining with Cytofix/Cytoperm reagent (BD Biosciences, 554772) and PE conjugated anti-cleaved caspase-3 antibody (BD Bioscience, 550821) and the number of pre-apoptotic cells were determined by flow cytometry.

293-A2 cells = assay: IFNγ ELISPOT of Ted10 with peptide-pulsed or CCNI-transfected 293-A2 cells; details: 293-A2 cells pulsed with peptide
Description: To investigate this relationship on cellular level, CCNI-ED10-specific effector T cells (Ted10) were generated from HLA-A*02:01-expressing normal peripheral blood mononuclear cells (PBMCs) using an established method.
IFNγ Enzyme-linked immunospot (ELISPOT) assay was performed to detect T-cell responses. MultiScreen 96 well filter plates (Millipore, MAHAS4510) were coated over night at 4° C. with 75 μL/well of […] anti-human IFNγ capture antibody (Mabtech AB, 3420-3-1000). TILs or CCNI-ED specific T cells (Ted10) were thawed and cultured with 1000U of human IL-2/mL overnight. On the next day, before performing ELISPOT assay, T cells were starved with IL-2 free medium for 6 hours. […] After 18 hours of cultivation at 37° C. and 5% CO2, the plates were incubated with 1 ng/mL of Biotinylated anti-human IFNγ monoclonal antibody (Mabtech, 3420-6-1000) for one hour, stained with ExtrAvidine®-Alkaline phosphatase (Sigma-Aldrich, E2636) and IFNγ positive spots were detected with BCIP/NBT Membrane Alkaline Phosphatase Substrate (Sigma, 11697471001). Plates were scanned and counted using the ImmunoSpot® ELISPOT analyzer (Shaker Heights, Ohio) to determine the number of spots/well. […]

## LLDGFLATV (listed as Homo sapiens) [CCNI-ED9, RNA editing-derived HLA peptide, editing site CCNI R75G]
Melanoma TILs; TIL2576, parallel assay with the same TILs
  IFNγ ELISPOT response of TIL to peptide: weakly reacted

## SLLDGFLATV (listed as Homo sapiens) [CCNI-ED10, RNA editing-derived HLA peptide, editing site CCNI R75G]
Melanoma TILs; triplicates
  IFNγ production by TILs (ELISPOT response to peptide): strongly responded
Melanoma TILs; IFNγ ELISPOT, triplicates
  number of HLA-A*02:01-expressing TILs that responded (TIL2678, TIL2661, TIL2559): 3 out of 15
T2 cells
  TIL2661 mediated killing of peptide-pulsed T2 cells: facilitated target killing
293-A2 cells
  IFNγ production by Ted10 (ELISPOT): potently activated

## SLLDRFLATV (listed as Homo sapiens) [CCNI-WT10, non-edited wildtype counterpart of CCNI-ED10, reference compound]
Melanoma TILs; triplicates
  IFNγ production by TILs (ELISPOT response to peptide): none of the TILs responded
T2 cells
  TIL2661 mediated killing of peptide-pulsed T2 cells: CCNI-ED10, rather than CCNI-WT10, to T2 cells facilitated target killing
